Results taken from patent US11667651B2, “Aminopyridine derivatives as phosphatidylinositol phosphate kinase inhibitors” (HiberCell, Inc., priority 2017, dated 2023).

Experiments:
Format in all cases: biochemical
PIP4K2B = target: T1, PIP4K2B (Homo sapiens, UniProt P78356); test: Trans-FI P kinase assay PIP4K2B (Table 4); settings: compounds listed under IC50 bins; read-out: Trans-FI P kinase assays: PIP4K2B IC50
T1 construct: made in house; host or cells: E. coli
T1 sequence (P78356 1-416): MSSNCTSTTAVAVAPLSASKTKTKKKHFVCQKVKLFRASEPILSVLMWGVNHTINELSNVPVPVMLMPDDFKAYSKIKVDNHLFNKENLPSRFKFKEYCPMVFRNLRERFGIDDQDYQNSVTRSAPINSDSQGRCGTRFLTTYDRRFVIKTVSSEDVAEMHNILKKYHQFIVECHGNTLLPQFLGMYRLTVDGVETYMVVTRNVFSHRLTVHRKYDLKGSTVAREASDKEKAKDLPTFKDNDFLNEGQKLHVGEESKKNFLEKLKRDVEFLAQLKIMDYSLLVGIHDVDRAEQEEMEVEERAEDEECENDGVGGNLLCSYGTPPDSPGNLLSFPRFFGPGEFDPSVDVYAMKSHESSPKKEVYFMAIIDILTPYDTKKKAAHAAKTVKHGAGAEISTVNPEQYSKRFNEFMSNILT
Summary of the method: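 Transcreener FI detection (Ex 584/Em 623) of GDP, converted via calibration curve, gives IC50 from residual activity versus log concentration (highest 4.8 μM). Reaction: 80 μM PI5P plus DOPE carrier, 100 μM GTP, 5 nM GST-tagged enzyme, pH 7.3 HEPES with MgCl2 and 5% DMSO, 2 h after 1 h enzyme-compound preincubation at 27° C.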

PIP4K2A [1] = target: T2, PIP4K2A (Homo sapiens, UniProt P48426); test: ADP-glo kinase assay PIP4K 2A (Table 3); parameters: made in house; host or cells: E. coli; settings: compounds listed under IC50 bins
T2 sequence (P48426 1-406): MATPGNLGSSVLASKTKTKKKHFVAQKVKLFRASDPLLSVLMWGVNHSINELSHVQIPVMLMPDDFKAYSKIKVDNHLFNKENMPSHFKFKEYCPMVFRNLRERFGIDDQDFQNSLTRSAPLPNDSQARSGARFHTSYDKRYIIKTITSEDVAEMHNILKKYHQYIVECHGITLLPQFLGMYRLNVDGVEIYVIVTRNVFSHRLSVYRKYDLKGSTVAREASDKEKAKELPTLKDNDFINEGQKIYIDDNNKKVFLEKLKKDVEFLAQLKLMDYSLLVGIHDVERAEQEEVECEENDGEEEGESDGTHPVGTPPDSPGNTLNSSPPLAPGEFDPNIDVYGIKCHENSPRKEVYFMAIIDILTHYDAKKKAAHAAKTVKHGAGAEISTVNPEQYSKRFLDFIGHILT
Summary of the method: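 Full-length PIP4K2A (4 nM in the mix) with 100 μM PI(5)P diC8 pre-incubated 15 min with compound in MOPS pH 7.2, 25 mM MgCl2; ATP added (60 μM solution), 1 h at RT. ADP formed read by ADP-Glo luminescence; 10-point curves versus DMSO controls fitted to IC50.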

PIP4K2A [2] = target: T2, PIP4K2A; test: Kinase Assay PIP4K2 A (Table 2); parameters: 4 nM PIP4K2A (full length protein, SignalChem); purchased SignalChem; settings: compounds listed under IC50 bins
Summary of the method: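 Full-length PIP4K2A (4 nM in the added mix, with 100 μM PI(5)P diC8) pre-incubated 15 min at RT with compounds (10-point, 3-fold series) in 20 mM MOPS pH 7.2, 25 mM MgCl2, 0.005% Tween 20. ATP added from a 60 μM solution, 1 h at RT; ADP-Glo luminescence, IC50 fitted from % inhibition versus DMSO.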

Structure (SMILES)	IC50 (PIP4K2B)	IC50 (PIP4K2A [1])	IC50 (PIP4K2A [2])
CN(C)C(=O)c1cccc2ncc(Nc3ccc(-c4ccc(N5CCCC5=O)cc4)cn3)cc12 [Example 147, N,N-dimethyl-3-((5-(4-(2-oxopyrrolidin-1-yl)phenyl)pyridin-2-yl)amino)quinoline-5-carboxamide]	> 1000 nM	100 to 1000 nM	100 to 1000 nM
CN(C)C(=O)c1ccc(-c2ccc(Nc3cncc(NC(=O)c4ccnc(N)c4)c3)nc2)cc1 [Example 131, 2-amino-N-(5-((5-(4-(dimethylcarbamoyl)phenyl)pyridin-2-yl)amino)pyridin-3-yl)isonicotinamide]	10 to 100 nM	10 to 100 nM	1 to 10 nM
CN(C)C(=O)c1ccc(-c2ccc(Nc3cnc4c(c3)CCCO4)nc2)cc1 [Example 58, 4-(6-((3,4-dihydro-2H-pyrano[2,3-b]pyridin-6-yl)amino)pyridin-3-yl)-N,N-dimethylbenzamide]	10 to 100 nM	100 to 1000 nM	10 to 100 nM
CN(C)C(=O)c1ccc(-c2ccc(Nc3cncc(NS(C)(=O)=O)c3)nc2)cc1 [Example 127, N,N-dimethyl-4-(6-((5-(methylsulfonamido)pyridin-3-yl)amino)pyridin-3-yl)benzamide]	10 to 100 nM	10 to 100 nM	10 to 100 nM
O=C1CCCN1c1ccc(-c2cnc(Nc3cncc(N4CCN(Cc5cscn5)C4=O)c3)cn2)cc1 [Example 164, 1-(5-((5-(4-(2-oxopyrrolidin-1-yl)phenyl)pyrazin-2-yl)amino)pyridin-3-yl)-3-(thiazol-4-ylmethyl)imidazolidin-2-one]	10 to 100 nM	1 to 10 nM	1 to 10 nM
CN(C)C(=O)c1ccc(-c2ccc(Nc3cncc(NC(=O)CCc4ccccc4)c3)nc2)cc1 [Example 137, N,N-dimethyl-4-(6-((5-(3-phenylpropanamido)pyridin-3-yl)amino)pyridin-3-yl)benzamide]	10 to 100 nM	10 to 100 nM	10 to 100 nM
COc1cc(Nc2cnc3c(c2)N2C(=O)CC[C@H]2CO3)ncc1-c1ccc(N2CCCC2=O)c(F)c1 [Example 183, (S)-2-((5-(3-fluoro-4-(2-oxopyrrolidin-1-yl)phenyl)-4-methoxypyridin-2-yl)amino)-6,6a,7,8-tetrahydro-9H-pyrido[2,3-b]pyrrolo[1,2-d][1,4]oxazin-9-one]	10 to 100 nM	1 to 10 nM	≤ 1 nM

The next lines start with the values.

IC50 (PIP4K2B)	IC50 (PIP4K2A [1])	IC50 (PIP4K2A [2])	Structure (SMILES)
10 to 100 nM	10 to 100 nM	1 to 10 nM	Cc1nc(Nc2cnc3c(c2)N2C(=O)CC[C@H]2CO3)ccc1-c1ccc(N2CCCC2=O)cc1 [Example 190, (S)-2-((6-methyl-5-(4-(2-oxopyrrolidin-1-yl)phenyl)pyridin-2-yl)amino)-6,6a,7,8-tetrahydro-9H-pyrido[2,3-b]pyrrolo[1,2-d][1,4]oxazin-9-one]
10 to 100 nM	1 to 10 nM	≤ 1 nM	CN(C)C(=O)c1ccc(-c2ccc(Nc3cncc(N4CCN(Cc5ccc(N)cc5)C4=O)c3)nc2)cc1 [Example 222, 4-(6-((5-(3-(4-aminobenzyl)-2-oxoimidazolidin-1-yl)pyridin-3-yl)amino)pyridin-3-yl)-N,N-dimethylbenzamide]
10 to 100 nM	1 to 10 nM	1 to 10 nM	CN(C)C/C=C/C(=O)Nc1cccc(CCC(=O)Nc2ccc(CN3CCN(c4cncc(Nc5ccc(-c6ccc(C(=O)N(C)C)cc6)cn5)c4)C3=O)cc2)c1 [Example 231, (E)-4-(6-((5-(3-(4-(3-(3-(4-(dimethylamino)-but-2-enamido)phenyl)propanamido)benzyl)-2-oxoimidazolidin-1-yl)pyridin-3-yl)amino)pyridin-3-yl)-N,N-dimethylbenzamide]
10 to 100 nM	1 to 10 nM	≤ 1 nM	CN(C)C(=O)c1ccc(-c2ccc(Nc3cncc(N4CCN(Cc5cccc(N)c5)C4=O)c3)nc2)cc1 [Example 223, 4-(6-((5-(3-(3-aminobenzyl)-2-oxoimidazolidin-1-yl)pyridin-3-yl)amino)pyridin-3-yl)-N,N-dimethylbenzamide]
